US20020052295A1, “Diacyl derivatives of propylene diamine having herbicidal activity” (priority 1999, published 2002)

Columns and labels:
Conditions in all cases: lowest tested rate giving 80% or greater inhibition, approx. 14 days after planting and treating, greenhouse
BRAPP = assay: Pre-emergence herbicidal activity on BRAPP (broadleaf signalgrass); assay type: in vivo, Brachiaria platyphylla
Procedure, shortened: (§1)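 Pre-emergence soil application; seeds covered with sterilized fertilized topsoil, compound in acetone/water (50:50) applied to surface. 30/21 °C greenhouse, overhead irrigation 0.64 cm then mist/subirrigation. Readout: % inhibition vs untreated at ~14 d; GR80 value, max rate typically 1000 g/ha.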

DATST = assay: Pre-emergence herbicidal activity on DATST (jimsonweed); assay type: in vivo, Datura stramonium
Procedure, shortened: as §1

CONAR = assay: Pre-emergence herbicidal activity on CONAR (field bindweed); assay type: in vivo, Convolvulus arvensis
Procedure, shortened: as §1

ABUTH = assay: Pre-emergence herbicidal activity on ABUTH (velvetleaf); assay type: in vivo, Abutilon theophrasti
Procedure, shortened: as §1

AMARE = assay: Pre-emergence herbicidal activity on AMARE (redroot pigweed); assay type: in vivo, Amaranthus retroflexus
Procedure, shortened: as §1

DIGSA = assay: Pre-emergence herbicidal activity on DIGSA (large crabgrass); assay type: in vivo, Digitaria sanguinalis
Procedure, shortened: as §1

POROL = assay: Pre-emergence herbicidal activity on POROL (common purslane); assay type: in vivo, Portulaca oleracea
Procedure, shortened: as §1

SOLNI = assay: Pre-emergence herbicidal activity on SOLNI (black nightshade); assay type: in vivo, Solanum nigrum
Procedure, shortened: as §1

CHEAL = assay: Pre-emergence herbicidal activity on CHEAL (common lambsquarters); assay type: in vivo, Chenopodium album
Procedure, shortened: as §1

PANMI = assay: Pre-emergence herbicidal activity on PANMI (wild proso millet); assay type: in vivo, Panicum miliaceum
Procedure, shortened: as §1

SORHA = assay: Pre-emergence herbicidal activity on SORHA (johnsongrass, seedling); assay type: in vivo, Sorghum halepense
Procedure, shortened: as §1

CIRAR = assay: Pre-emergence herbicidal activity on CIRAR (canada thistle, seedling); assay type: in vivo, Cirsium arvense
Procedure, shortened: as §1

ECHCG = assay: Pre-emergence herbicidal activity on ECHCG (barnyardgrass); assay type: in vivo, Echinochloa crus-galli
Procedure, shortened: as §1

SORVU = assay: Pre-emergence herbicidal activity on SORVU (shattercane); assay type: in vivo, Sorghum vulgare
Source text: All such uses, and the biological activity enabling such uses, are embraced by the term “herbicidal” herein. Tables 15 and 16 summarize results of tests conducted as described below to determine the pre-emergence herbicidal activity, in the form of a GR80 value, of illustrative compounds of this invention. […] Where herbicidal activity was evident but 80% inhibition was not achieved at the highest rate tested (typically 1000 g/ha), an asterisk (*) is shown in the following tables. Herbicidal activity evident in the form of symptoms of phytotoxicity, in the absence of at least 80% inhibition at any rate, is indicated in the tables by “phyto”. A blank cell in the following tables indicates no herbicidal or phytotoxic response at any rate tested.
The pre-emergence tests were conducted by the following procedure. Topsoil was sieved to pass through a 1.27 cm screen. Fertilizer was added to the topsoil and the mixture was then sterilized by heating. The topsoil mixture was placed in a pot and compacted to a depth of 1.0 to 1.25 cm from the top of the pot. Seeds of each of several monocotyledonous and dicotyledonous annual plant species were placed on top of the soil. Additional soil was subsequently placed over the seeds to level-fill the pot. A known amount of each test compound dissolved or suspended in an appropriate organic solvent was diluted with a 50:50 mix of acetone and water and applied to the surface of the soil. After treatment the plants were placed in a greenhouse with a 30/21° C. day/night temperature regime where they received 0.64 cm of overhead irrigation. All subsequent watering consisted of a light overhead mist and/or subirrigation as needed for germination and growth.
Approximately 14 days after planting and treating, the plants were observed and herbicidal efficacy recorded as percent inhibition by comparison with untreated plants.
The plant species usually regarded as weeds which were utilized in the tests are identified in the tables below according to the following legend, in which “d” indicates a dicotyledonous species and “m” a monocotyledonous species. All monocotyledonous species included in the tests herein are grasses.

PANDI = assay: Pre-emergence herbicidal activity on PANDI (fall panicum); assay type: in vivo, Panicum dichotomiflorum
Procedure, shortened: as §1

SETFA = assay: Pre-emergence herbicidal activity on SETFA (giant foxtail); assay type: in vivo, Setaria faberi
Procedure, shortened: as §1

## CC(CNC(=O)c1cccc(C(F)(F)F)c1)NC(=O)c1cccc(Cl)c1F (centres unmarked) [Example 49]
BRAPP
  Pre-emergence activity (GR80) on BRAPP: 500 g/ha
DATST
  Pre-emergence activity (GR80) on DATST: 64 g/ha
CONAR
  Pre-emergence activity (GR80) on CONAR: 750 g/ha
ABUTH
  Pre-emergence activity (GR80) on ABUTH: 64 g/ha
AMARE
  Pre-emergence activity (GR80) on AMARE: 64 g/ha
DIGSA
  Pre-emergence activity (GR80) on DIGSA: 64 g/ha
POROL
  Pre-emergence activity (GR80) on PORAL: 64 g/ha
SOLNI
  Pre-emergence activity (GR80) on SOLNI: 125 g/ha
CHEAL
  Pre-emergence activity (GR80) on CHEAL: 64 g/ha
PANMI
  Pre-emergence activity (GR80) on PANMI: 125 g/ha
SORHA
  Pre-emergence activity (GR80) on SORHA: 250 g/ha
CIRAR
  Pre-emergence activity (GR80) on CIRAR: 64 g/ha
ECHCG
  Pre-emergence activity (GR80) on ECHCG: 500 g/ha
SORVU
  Pre-emergence activity (GR80) on SORVU: * (Where herbicidal activity was evident but 80% inhibition was not achieved at the highest rate tested (typically 1000 g/ha), an asterisk (*) is shown)
PANDI
  Pre-emergence activity (GR80) on PANDI: 64 g/ha
SETFA
  Pre-emergence activity (GR80) on SETFA: 125 g/ha

## CC(CNC(=O)c1cccc(C(F)(F)F)c1)NC(=O)c1cccc(Cl)c1Cl (centres unmarked) [Example 50]
BRAPP
  Pre-emergence activity (GR80) on BRAPP: 500 g/ha
DATST
  Pre-emergence activity (GR80) on DATST: 125 g/ha
CONAR
  Pre-emergence activity (GR80) on CONAR: 250 g/ha
ABUTH
  Pre-emergence activity (GR80) on ABUTH: 750 g/ha
AMARE
  Pre-emergence activity (GR80) on AMARE: 32 g/ha
DIGSA
  Pre-emergence activity (GR80) on DIGSA: 125 g/ha
POROL
  Pre-emergence activity (GR80) on PORAL: 32 g/ha
SOLNI
  Pre-emergence activity (GR80) on SOLNI: 125 g/ha
CHEAL
  Pre-emergence activity (GR80) on CHEAL: 32 g/ha
PANMI
  Pre-emergence activity (GR80) on PANMI: 1000 g/ha
SORHA
  Pre-emergence activity (GR80) on SORHA: 1000 g/ha
CIRAR
  Pre-emergence activity (GR80) on CIRAR: 64 g/ha
ECHCG
  Pre-emergence activity (GR80) on ECHCG: * (Where herbicidal activity was evident but 80% inhibition was not achieved at the highest rate tested (typically 1000 g/ha), an asterisk (*) is shown)
SORVU
  Pre-emergence activity (GR80) on SORVU: * (Where herbicidal activity was evident but 80% inhibition was not achieved at the highest rate tested (typically 1000 g/ha), an asterisk (*) is shown)
PANDI
  Pre-emergence activity (GR80) on PANDI: 250 g/ha
SETFA
  Pre-emergence activity (GR80) on SETFA: 750 g/ha

## Cc1c(Cl)cccc1C(=O)NC(C)CNC(=O)c1cccc(C(F)(F)F)c1 (centres unmarked) [Example 51]
BRAPP
  Pre-emergence activity (GR80) on BRAPP: 500 g/ha
DATST
  Pre-emergence activity (GR80) on DATST: 250 g/ha
CONAR
  Pre-emergence activity (GR80) on CONAR: 1000 g/ha
ABUTH
  Pre-emergence activity (GR80) on ABUTH: 250 g/ha
AMARE
  Pre-emergence activity (GR80) on AMARE: 125 g/ha
DIGSA
  Pre-emergence activity (GR80) on DIGSA: 64 g/ha
POROL
  Pre-emergence activity (GR80) on PORAL: 64 g/ha
SOLNI
  Pre-emergence activity (GR80) on SOLNI: 125 g/ha
CHEAL
  Pre-emergence activity (GR80) on CHEAL: 64 g/ha
PANMI
  Pre-emergence activity (GR80) on PANMI: 250 g/ha
SORHA
  Pre-emergence activity (GR80) on SORHA: 1000 g/ha
CIRAR
  Pre-emergence activity (GR80) on CIRAR: 125 g/ha
ECHCG
  Pre-emergence activity (GR80) on ECHCG: * (Where herbicidal activity was evident but 80% inhibition was not achieved at the highest rate tested (typically 1000 g/ha), an asterisk (*) is shown)
SORVU
  Pre-emergence activity (GR80) on SORVU: phyto
PANDI
  Pre-emergence activity (GR80) on PANDI: 250 g/ha
SETFA
  Pre-emergence activity (GR80) on SETFA: 250 g/ha

## CC(CNC(=O)c1cccc(C(F)(F)F)c1)NC(=O)c1ccccc1Cl (centres unmarked) [Example 103]
BRAPP
  Pre-emergence activity (GR80) on BRAPP: 750 g/ha
DATST
  Pre-emergence activity (GR80) on DATST: 500 g/ha
CONAR
  Pre-emergence activity (GR80) on CONAR: * (Where herbicidal activity was evident but 80% inhibition was not achieved at the highest rate tested (typically 1000 g/ha), an asterisk (*) is shown)
ABUTH
  Pre-emergence activity (GR80) on ABUTH: 750 g/ha
AMARE
  Pre-emergence activity (GR80) on AMARE: 125 g/ha
DIGSA
  Pre-emergence activity (GR80) on DIGSA: 500 g/ha
POROL
  Pre-emergence activity (GR80) on PORAL: 125 g/ha
SOLNI
  Pre-emergence activity (GR80) on SOLNI: 250 g/ha
CHEAL
  Pre-emergence activity (GR80) on CHEAL: 500 g/ha
PANMI
  Pre-emergence activity (GR80) on PANMI: 1000 g/ha
SORHA
  Pre-emergence activity (GR80) on SORHA: 500 g/ha
CIRAR
  Pre-emergence activity (GR80) on CIRAR: 750 g/ha
ECHCG
  Pre-emergence activity (GR80) on ECHCG: phyto
SORVU
  Pre-emergence activity (GR80) on SORVU: phyto
PANDI
  Pre-emergence activity (GR80) on PANDI: 500 g/ha
SETFA
  Pre-emergence activity (GR80) on SETFA: 500 g/ha

## Cc1c(Cl)cccc1C(=O)NC(C)CNC(=O)c1cccc(C(F)(F)F)c1F (centres unmarked) [Example 150]
BRAPP
  Pre-emergence activity (GR80) on BRAPP: * (Where herbicidal activity was evident but 80% inhibition was not achieved at the highest rate tested (typically 1000 g/ha), an asterisk (*) is shown)
DATST
  Pre-emergence activity (GR80) on DATST: 32 g/ha
CONAR
  Pre-emergence activity (GR80) on CONAR: 125 g/ha
ABUTH
  Pre-emergence activity (GR80) on ABUTH: 1000 g/ha
AMARE
  Pre-emergence activity (GR80) on AMARE: 32 g/ha
DIGSA
  Pre-emergence activity (GR80) on DIGSA: 32 g/ha
POROL
  Pre-emergence activity (GR80) on PORAL: 32 g/ha
SOLNI
  Pre-emergence activity (GR80) on SOLNI: 64 g/ha
CHEAL
  Pre-emergence activity (GR80) on CHEAL: 32 g/ha
PANMI
  Pre-emergence activity (GR80) on PANMI: 64 g/ha
SORHA
  Pre-emergence activity (GR80) on SORHA: * (Where herbicidal activity was evident but 80% inhibition was not achieved at the highest rate tested (typically 1000 g/ha), an asterisk (*) is shown)
CIRAR
  Pre-emergence activity (GR80) on CIRAR: 125 g/ha
ECHCG
  Pre-emergence activity (GR80) on ECHCG: * (Where herbicidal activity was evident but 80% inhibition was not achieved at the highest rate tested (typically 1000 g/ha), an asterisk (*) is shown)
SORVU
  Pre-emergence activity (GR80) on SORVU: phyto
PANDI
  Pre-emergence activity (GR80) on PANDI: 125 g/ha
SETFA
  Pre-emergence activity (GR80) on SETFA: 125 g/ha
